Experimental data from patent US9187492B2, “Pyripyropene derivative having ACAT2 inhibiting activity and stable to metabolizing enzymes” (School Juridical Person Kitasato Institute, priority 2010, dated 2015).
Where two headings read alike, the source gives them in different places.

How the values were obtained:
in vitro = conditions: female, Sprague-Dawley (SD), rat, microsomes, pH 7.4, Half-life
[1] = female, Sprague-Dawley (SD), rat, microsomes, 6 μg/mL, pH 7.4
ACAT2 = target: T1, ACAT2 (Mus musculus, UniProt O88908); assay: Measurement of ACAT2-inhibiting activity (murine hepatic microsome, [14C]cholesteryl oleate formation); assay type: biochemical; conditions: for IC50: murine hepatic microsome membrane fraction, 5 min at 37° C., read-out: Inhibitory activity (concentration required for 50% inhibition of ACAT 2 = IC50); for Specific activity ((IC50 of the test compound)/(IC50 of PRD 043)): relative to PRD 043, class symbols
T1 construct: The resulting sediment was collected as a microsome fraction; from tissue; host or cells: mouse liver (hepatic microsome membrane fraction)
T1 sequence (O88908 1-525): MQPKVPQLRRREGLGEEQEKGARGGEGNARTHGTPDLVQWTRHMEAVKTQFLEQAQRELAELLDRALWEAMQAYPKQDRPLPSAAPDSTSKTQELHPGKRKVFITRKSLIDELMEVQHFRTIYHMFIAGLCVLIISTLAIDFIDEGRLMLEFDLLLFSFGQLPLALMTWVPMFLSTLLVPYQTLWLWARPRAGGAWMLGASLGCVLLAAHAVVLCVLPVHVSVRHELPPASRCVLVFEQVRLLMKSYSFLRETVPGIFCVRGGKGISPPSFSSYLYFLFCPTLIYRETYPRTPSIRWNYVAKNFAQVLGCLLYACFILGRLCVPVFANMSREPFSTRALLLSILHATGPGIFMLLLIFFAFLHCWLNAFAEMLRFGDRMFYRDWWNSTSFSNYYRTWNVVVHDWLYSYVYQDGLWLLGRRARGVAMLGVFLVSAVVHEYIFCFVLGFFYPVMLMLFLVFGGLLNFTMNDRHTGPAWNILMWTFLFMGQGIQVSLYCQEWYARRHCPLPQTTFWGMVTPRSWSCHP
Method: The enzyme source which was used was a membrane fraction derived from murine hepatic microsome. Mouse livers were homogenized in buffer solution A (50 mM Tris HCl solution (pH 7.8), 1 mM ethylene diamine tetraacetate, and 1 mM phenylmethanesulfonyl fluoride) using a Potter-type homogenizer (Tokyo-Riko). The homogenate was centrifuged at 12000×g, and the supernatant was subjected to ultracentrifugation at 100000×g. The resulting sediment was collected as a microsome fraction, and this fraction was adjusted so as to have a protein concentration of 5 mg/mL using buffer solution A.
As a control, 10 μL of methanol were used in place of the pyripyropene derivative.
The chloroform layer was evaporated to dryness and was used to spot a thin layer chromatography plate (silica gel plate, Merck, 0.5 mm thickness). Elution for separation was carried out using hexane/diethyl ether/acetic acid (70:30:1, v/v) as an eluant.
wherein the background is the radioactivity of a thin layer chromatography plate which was not spotted.

[2] = Stability against metabolizing enzymes in the liver (hepatic microsome); conditions: time until remaining amount reached 50%, 37° C.; for half-life at 6 μg/mL: female, Sprague-Dawley (SD), rat, liver microsomes, pH 7.4, Half-life; for Half-life: female SD rat hepatic microsome, 6 μg/mL, pH 7.4

Row | SMILES | half-life at 6 μg/mL (in vitro) | Half-life [1] | IC50 (ACAT2) | Specific activity ((IC50 of the test compound)/(IC50 of PRD 043)) (ACAT2) | half-life at 6 μg/mL [2] | Half-life [2]
1 | CC(=O)OC[C@@]1(C)[C@@H]2C[C@H](OC(C)=O)[C@@]3(C)Oc4cc(-c5cccnc5)oc(=O)c4[C@H](O)[C@@H]3[C@@]2(C)CC[C@@H]1OC(C)=O [PPA, pyripyropene A] | 1 h | <1 h |  |  |  | 
2 | Cc1ccccc1[C@@H]1OCC2(C)C3C[C@H](OC(=O)c4ccc(F)cc4)[C@@]4(C)Oc5cc(-c6cccnc6)oc(=O)c5[C@H](O)C4[C@@]3(C)CC[C@@H]2O1 (stereo partly shown) [PRD155, 1,11-O-o-methylbenzylidene-7-O-p-fluorobenzoyl-1,7,11-trideacetylpyripyropene A] |  |  | 0.5 to 1 nM | +++ (10<specific activity≦20) | ≥ 9 h | >9 h
3 | CC(C)C(=O)OCC1(C)C2C[C@H](OC(=O)C3CCCCC3)[C@@]3(C)Oc4cc(-c5cccnc5)oc(=O)c4[C@H](O)C3[C@@]2(C)CC[C@@H]1OC(=O)C(C)C (stereo partly shown) [PRD074, 7-O-cyclohexanecarbonyl-1,11-O-diisobutyryl-1,7,11-trideacetylpyripyropene A] |  |  | 0.5 to 1 nM | +++ (10<specific activity≦20) | ≥ 9 h | >9 h
